Data reported in PubChem BioAssay (NCI).
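Method: 48-hour compound exposure of cells in 96-well plates, five concentrations, linear interpolation of endpoints. At the GI50, growth is halved. TGI: total growth inhibition.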

How the values were obtained:
Assay in all cases: growth of human tumour cells (NCI), 48 h
CAKI-1 renal = test system: CAKI-1 renal
HCT-116 colon = test system: HCT-116 colon
HOP-62 NSCLC = test system: HOP-62 NSCLC
IGROV1 ovarian = test system: IGROV1 ovarian
OVCAR-3 ovarian = test system: OVCAR-3 ovarian
OVCAR-5 ovarian = test system: OVCAR-5 ovarian
SK-MEL-2 melanoma = test system: SK-MEL-2 melanoma
SK-MEL-28 melanoma = test system: SK-MEL-28 melanoma
SNB-75 CNS = test system: SNB-75 CNS
UACC-257 melanoma = test system: UACC-257 melanoma

Compound: CN1CCCNCCN(CCc2ccccn2)CCCN(C)CC1
- TGI (CAKI-1 renal): > 100 µM
- TGI (HCT-116 colon): > 100 µM
- TGI (HOP-62 NSCLC): > 100 µM
- TGI (IGROV1 ovarian): > 100 µM
- TGI (OVCAR-3 ovarian): > 100 µM
- TGI (OVCAR-5 ovarian): > 100 µM
- TGI (SK-MEL-2 melanoma): > 100 µM
- TGI (SK-MEL-28 melanoma): > 100 µM
- TGI (SNB-75 CNS): > 100 µM
- TGI (UACC-257 melanoma): > 100 µM

Compound: O=C(O)/C=C/C(=O)Nc1ncn[nH]1
- TGI (CAKI-1 renal): > 100 µM
- TGI (HCT-116 colon): > 100 µM
- TGI (HOP-62 NSCLC): > 100 µM
- TGI (IGROV1 ovarian): > 100 µM
- TGI (OVCAR-3 ovarian): > 100 µM
- TGI (OVCAR-5 ovarian): > 100 µM
- TGI (SK-MEL-2 melanoma): > 100 µM
- TGI (SK-MEL-28 melanoma): > 100 µM
- TGI (SNB-75 CNS): > 100 µM
- TGI (UACC-257 melanoma): > 100 µM

Compound: COC(=O)c1c2c(c(C)[n+]([O-])c1C)C(=O)C=CC2=O
- GI50 (CAKI-1 renal): 1.95 µM
- TGI (CAKI-1 renal): 4.2 µM
- GI50 (HCT-116 colon): 0.945 µM
- TGI (HCT-116 colon): 7.5 µM
- GI50 (HOP-62 NSCLC): 0.744 µM
- TGI (HOP-62 NSCLC): 2.27 µM
- GI50 (IGROV1 ovarian): 1.74 µM
- TGI (IGROV1 ovarian): 4.25 µM
- GI50 (OVCAR-3 ovarian): 0.314 µM
- TGI (OVCAR-3 ovarian): 1.05 µM
- GI50 (OVCAR-5 ovarian): 1.76 µM
- TGI (OVCAR-5 ovarian): 3.23 µM
- GI50 (SK-MEL-2 melanoma): 1.89 µM
- TGI (SK-MEL-2 melanoma): 3.99 µM
- GI50 (SK-MEL-28 melanoma): 1.96 µM
- TGI (SK-MEL-28 melanoma): 3.6 µM
- GI50 (SNB-75 CNS): 1.72 µM
- TGI (SNB-75 CNS): 3.12 µM
- GI50 (UACC-257 melanoma): 1.57 µM
- TGI (UACC-257 melanoma): 3.34 µM

Compound: CN(C)c1ccc2c(c1)oc(=O)c1ccccc12
- TGI (CAKI-1 renal): 26.1 µM
- TGI (HCT-116 colon): 25.9 µM
- TGI (HOP-62 NSCLC): 65.6 µM
- TGI (IGROV1 ovarian): 36.7 µM
- TGI (OVCAR-3 ovarian): 16.4 µM
- TGI (OVCAR-5 ovarian): 30.2 µM
- TGI (SK-MEL-2 melanoma): 23.2 µM
- TGI (SK-MEL-28 melanoma): 34.3 µM
- TGI (SNB-75 CNS): 31.9 µM
- TGI (UACC-257 melanoma): 28.3 µM

Compound: CC(=O)OCCc1cccnc1/C=N/O
- TGI (CAKI-1 renal): > 100 µM
- TGI (HCT-116 colon): > 100 µM
- TGI (HOP-62 NSCLC): > 100 µM
- TGI (IGROV1 ovarian): > 100 µM
- TGI (OVCAR-3 ovarian): > 100 µM
- TGI (OVCAR-5 ovarian): > 100 µM
- TGI (SK-MEL-2 melanoma): > 100 µM
- TGI (SK-MEL-28 melanoma): > 100 µM
- TGI (SNB-75 CNS): > 100 µM
- TGI (UACC-257 melanoma): > 100 µM

Compound: O=C1CCC(NC(=O)c2ccccc2)C(=O)N1 (stereo not given)
- TGI (CAKI-1 renal): > 100 µM
- TGI (HCT-116 colon): > 100 µM
- TGI (HOP-62 NSCLC): > 100 µM
- TGI (IGROV1 ovarian): > 100 µM
- TGI (OVCAR-3 ovarian): > 100 µM
- TGI (OVCAR-5 ovarian): > 100 µM
- TGI (SK-MEL-2 melanoma): > 100 µM
- TGI (SK-MEL-28 melanoma): > 100 µM
- TGI (SNB-75 CNS): > 100 µM
- TGI (UACC-257 melanoma): > 100 µM

Compound: Cn1c(-c2nonc2N)nc2cnccc21
- GI50 (CAKI-1 renal): 13.7 µM
- TGI (CAKI-1 renal): > 25 µM
- GI50 (HCT-116 colon): > 25 µM
- TGI (HCT-116 colon): > 25 µM
- GI50 (HOP-62 NSCLC): > 25 µM
- TGI (HOP-62 NSCLC): > 25 µM
- GI50 (IGROV1 ovarian): > 25 µM
- TGI (IGROV1 ovarian): > 25 µM
- GI50 (OVCAR-3 ovarian): > 25 µM
- TGI (OVCAR-3 ovarian): > 25 µM
- GI50 (OVCAR-5 ovarian): > 25 µM
- TGI (OVCAR-5 ovarian): > 25 µM
- GI50 (SK-MEL-2 melanoma): > 25 µM
- TGI (SK-MEL-2 melanoma): > 25 µM
- GI50 (SK-MEL-28 melanoma): > 25 µM
- TGI (SK-MEL-28 melanoma): > 25 µM
- GI50 (SNB-75 CNS): > 12.8 µM
- TGI (SNB-75 CNS): > 24 µM
- GI50 (UACC-257 melanoma): > 25 µM
- TGI (UACC-257 melanoma): > 25 µM

Compound: OC(c1cccc(C(F)(F)F)c1)c1cnccc1NC1CCCCCC1 (stereo not given)
- GI50 (CAKI-1 renal): 1.55 µM
- TGI (CAKI-1 renal): 3.85 µM
- GI50 (HCT-116 colon): 1.65 µM
- TGI (HCT-116 colon): 3.18 µM
- GI50 (HOP-62 NSCLC): 1.89 µM
- TGI (HOP-62 NSCLC): 3.63 µM
- GI50 (IGROV1 ovarian): 1.7 µM
- TGI (IGROV1 ovarian): 3.43 µM
- GI50 (OVCAR-3 ovarian): 2.35 µM
- TGI (OVCAR-3 ovarian): 6.23 µM
- GI50 (OVCAR-5 ovarian): 1.7 µM
- TGI (OVCAR-5 ovarian): 3.76 µM
- GI50 (SK-MEL-2 melanoma): 1.71 µM
- TGI (SK-MEL-2 melanoma): 3.34 µM
- GI50 (SK-MEL-28 melanoma): 1.73 µM
- TGI (SK-MEL-28 melanoma): 3.24 µM
- GI50 (SNB-75 CNS): 1.77 µM
- TGI (SNB-75 CNS): 8.25 µM
- GI50 (UACC-257 melanoma): 2.36 µM
- TGI (UACC-257 melanoma): 4.66 µM

Compound: CN(C)CCNC(=O)c1cccc2nc3c(Cl)cccc3nc12
- TGI (CAKI-1 renal): > 70.8 µM
- TGI (HCT-116 colon): 16.1 µM
- TGI (HOP-62 NSCLC): 26.3 µM
- TGI (IGROV1 ovarian): > 86.4 µM
- TGI (OVCAR-3 ovarian): > 63.6 µM
- TGI (OVCAR-5 ovarian): 16.7 µM
- TGI (SK-MEL-2 melanoma): 18.6 µM
- TGI (SK-MEL-28 melanoma): 15.9 µM
- TGI (SNB-75 CNS): 32.2 µM
- TGI (UACC-257 melanoma): 26.9 µM

Compound: CC1=C[C@@H]2Cc3occc3C(C)(C)[C@@H]2CC1
- TGI (CAKI-1 renal): 52.2 µM
- TGI (HCT-116 colon): 33.7 µM
- TGI (HOP-62 NSCLC): 92.2 µM
- TGI (IGROV1 ovarian): > 10 µM
- TGI (OVCAR-3 ovarian): 31.5 µM
- TGI (OVCAR-5 ovarian): 50.3 µM
- TGI (SK-MEL-2 melanoma): 24.5 µM
- TGI (SK-MEL-28 melanoma): 49.5 µM
- TGI (SNB-75 CNS): 33.5 µM
- TGI (UACC-257 melanoma): 44.7 µM

Compound: O=C(Cc1ccc(/C=C/C(=O)c2ncc[nH]2)cc1)Nc1ccc(Cl)cc1
- GI50 (CAKI-1 renal): 4.88 µM
- TGI (CAKI-1 renal): 15.4 µM
- GI50 (HCT-116 colon): 0.848 µM
- TGI (HCT-116 colon): 3.41 µM
- GI50 (HOP-62 NSCLC): 3.19 µM
- TGI (HOP-62 NSCLC): 8.78 µM
- GI50 (IGROV1 ovarian): 3.59 µM
- TGI (IGROV1 ovarian): 15.4 µM
- GI50 (OVCAR-3 ovarian): 1.14 µM
- TGI (OVCAR-3 ovarian): 4.29 µM
- GI50 (OVCAR-5 ovarian): 3.3 µM
- TGI (OVCAR-5 ovarian): 7.78 µM
- GI50 (SK-MEL-2 melanoma): 5.53 µM
- TGI (SK-MEL-2 melanoma): 14.6 µM
- GI50 (SK-MEL-28 melanoma): 4.81 µM
- TGI (SK-MEL-28 melanoma): 11.7 µM
- GI50 (SNB-75 CNS): 3.63 µM
- TGI (SNB-75 CNS): > 25 µM
- GI50 (UACC-257 melanoma): 7.24 µM
- TGI (UACC-257 melanoma): 19 µM

Compound: Fc1ccc(-c2nn(-c3ccccc3)cc2-c2nc3ccccc3o2)cc1
- GI50 (CAKI-1 renal): 3.13 µM
- TGI (CAKI-1 renal): > 100 µM
- GI50 (HCT-116 colon): 2.5 µM
- TGI (HCT-116 colon): 20.7 µM
- GI50 (HOP-62 NSCLC): 4.95 µM
- TGI (HOP-62 NSCLC): 33.4 µM
- GI50 (IGROV1 ovarian): 3.94 µM
- TGI (IGROV1 ovarian): 39.3 µM
- GI50 (OVCAR-3 ovarian): 2.87 µM
- TGI (OVCAR-3 ovarian): 48.7 µM
- GI50 (OVCAR-5 ovarian): 20.1 µM
- TGI (OVCAR-5 ovarian): 77.2 µM
- GI50 (SK-MEL-2 melanoma): 9 µM
- TGI (SK-MEL-2 melanoma): 28.3 µM
- GI50 (SK-MEL-28 melanoma): 13.4 µM
- TGI (SK-MEL-28 melanoma): 39.4 µM
- GI50 (SNB-75 CNS): 9.89 µM
- TGI (SNB-75 CNS): 33.4 µM
- GI50 (UACC-257 melanoma): 13.3 µM
- TGI (UACC-257 melanoma): 48.2 µM

Compound: CN=C1NC(=O)/C(=C/c2ccc3ncccc3c2)S1
- GI50 (CAKI-1 renal): 4.6 µM
- TGI (CAKI-1 renal): > 20.9 µM
- GI50 (HCT-116 colon): 5.29 µM
- TGI (HCT-116 colon): > 25 µM
- GI50 (HOP-62 NSCLC): 10.3 µM
- TGI (HOP-62 NSCLC): > 25 µM
- GI50 (IGROV1 ovarian): 8.53 µM
- TGI (IGROV1 ovarian): > 25 µM
- GI50 (OVCAR-3 ovarian): 9.11 µM
- TGI (OVCAR-3 ovarian): > 25 µM
- GI50 (OVCAR-5 ovarian): 9.52 µM
- TGI (OVCAR-5 ovarian): > 25 µM
- GI50 (SK-MEL-2 melanoma): 5.42 µM
- TGI (SK-MEL-2 melanoma): 14.4 µM
- GI50 (SK-MEL-28 melanoma): 10.5 µM
- TGI (SK-MEL-28 melanoma): > 25 µM
- GI50 (SNB-75 CNS): 3.8 µM
- TGI (SNB-75 CNS): > 21.2 µM
- GI50 (UACC-257 melanoma): 7.18 µM
- TGI (UACC-257 melanoma): > 25 µM
